This passage reports IC50 results from paper PMC7529893, “Structural basis for substrate recognition and chemical inhibition of oncogenic MAGE ubiquitin ligases” (Nature Communications, 2020).

SMILES strings stand for the structures. A value given as a limit tells only on which side of the number the result lay.

The target of the first assay is T1, MAGE-A11:PCF11 interaction (GST-MAGE-A11 MHD and FAM-PCF11_4) (Homo sapiens, UniProt P43364).
T1 construct: GST-MAGE-A11 MHD (human MAGE-A11 MHD amino acid 218-429); made in house; host or cells: E. coli BL21(DE3)
T1 sequence (P43364 218-429): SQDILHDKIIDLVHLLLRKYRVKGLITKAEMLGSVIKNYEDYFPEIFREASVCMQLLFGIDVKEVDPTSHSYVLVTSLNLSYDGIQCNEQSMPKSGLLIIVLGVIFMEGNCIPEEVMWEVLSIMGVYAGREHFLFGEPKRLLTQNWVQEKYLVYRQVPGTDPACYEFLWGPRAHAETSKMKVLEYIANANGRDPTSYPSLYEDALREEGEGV
Put plainly: TR-FRET dose response test of compounds for disruption of MAGE-A11:PCF11 binding. To be noted: Dose response TR-FRET screening of nine scaffold groups against MAGE-A11:PCF11; read-out: consensus IC50. An outline of the steps: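 Competition of compounds against binding of FAM-PCF11_4 peptide to GST-MAGE-A11 MHD, detected with Tb-anti-GST, in 50 mM Tris pH 7.5, 20 mM MgCl2, 0.1 mg/ml BSA, 1 mM DTT. 90 min at ~25 °C; 520/490 nm emission ratio (340 nm excitation) fitted for IC50.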
For orientation: IC50 means the midpoint of a concentration-inhibition curve. As to `CC(C)(C)c1ccc(-c2ccc3c(NCCCNCc4cccc5c4OCO5)ccnc3c2)cc1` [SJ000311288-1], the IC50 worked out at 6.87 µM.
Same read-out and setting: next, `COc1ccc(F)cc1CNCCCNc1ccnc2cc(-c3ccc(C(C)(C)C)cc3)ccc12` [SJ000311289-1]: 4.62 µM; `COc1cccc(CNCCCNc2ccnc3cc(-c4ccc5c(c4)OCO5)ccc23)c1O` [SJ000311291-1]: 24.6 µM.
`c1cc(CNCCCNc2ccnc3cc(-c4ccc5c(c4)OCO5)ccc23)c2c(c1)OCO2` [SJ000311292-1]: the IC50 turned out to be 30.5 µM.
The same measure, in the same setting: the value for `COc1ccc(F)cc1CNCCCNc1ccnc2cc(-c3ccc4c(c3)OCO4)ccc12` [SJ000311293-1] was 29.9 µM.
Still for that read-out and setting: next, `COc1cccc(CNCCCNc2ccnc3cc(Cc4cccc(C(F)(F)F)c4)ccc23)c1O` [SJ000311299-1]: 27.5 µM.
Still for that read-out and setting: next, `FC(F)(F)c1cccc(Cc2ccc3c(NCCCNCc4cccc5c4OCO5)ccnc3c2)c1` [SJ000311300-1]: 12.8 µM; `COc1ccc(F)cc1CNCCCNc1ccnc2cc(Cc3cccc(C(F)(F)F)c3)ccc12` [SJ000311301-2]: 22.1 µM.
`COc1cccc(CNCCCNc2ccnc3cc(Cc4ccc(C#N)cc4)ccc23)c1O` [SJ000311303-1]: the IC50 is 51 µM.
Same read-out and setting: the value for `N#Cc1ccc(Cc2ccc3c(NCCCNCc4cccc5c4OCO5)ccnc3c2)cc1` [SJ000311304-1] was 66 µM.
On the same count and under the same terms, next, `c1ccc(Cc2ccc3c(NCCCNCc4cccc5c4OCO5)ccnc3c2)cc1` [SJ000311308-1]: 46.1 µM.
Same read-out and setting: next, `COc1ccc(F)cc1CNCCCNc1ccnc2cc(Cc3ccccc3)ccc12` [SJ000311309-1]: 18.3 µM; `COc1cc(Cc2ccc3c(NCCCNCc4cccc(OC)c4O)ccnc3c2)cc(OC)c1` [SJ000311311-1]: 33.6 µM; `COc1cc(Cc2ccc3c(NCCCNCc4cccc5c4OCO5)ccnc3c2)cc(OC)c1` [SJ000311312-1]: 31.3 µM.
For the compound `COc1cc(Cc2ccc3c(NCCCNCc4cc(F)ccc4OC)ccnc3c2)cc(OC)c1` [SJ000311313-1], the IC50 was determined as 33.8 µM.
For the compound `COc1cccc(CNCCCNc2ccnc3cc(Cc4c(Cl)cccc4Cl)ccc23)c1O` [SJ000311315-1], the IC50 is 13.8 µM.
On to `Clc1cccc(Cl)c1Cc1ccc2c(NCCCNCc3cccc4c3OCO4)ccnc2c1` [SJ000311316-1], for which the IC50 was found to be 11 µM.
Still for that read-out and setting: next, `COc1ccc(F)cc1CNCCCNc1ccnc2cc(Cc3c(Cl)cccc3Cl)ccc12` [SJ000311317-1]: 12.2 µM; `COc1cccc(CNCCCNc2ccnc3cc(Cc4cc(C)cc(C)c4)ccc23)c1O` [SJ000311319-1]: 23.6 µM.
On to `Cc1cc(C)cc(Cc2ccc3c(NCCCNCc4cccc5c4OCO5)ccnc3c2)c1` [SJ000311320-1], for which the IC50 was 16.3 µM.
Same read-out and setting: the value for `COc1ccc(F)cc1CNCCCNc1ccnc2cc(Cc3cc(C)cc(C)c3)ccc12` [SJ000311321-1] was 9.04 µM; that for `COc1cccc(CNCCCNc2ccnc3cc(Cc4ccc(F)cc4Cl)ccc23)c1O` [SJ000311323-1] was 17.6 µM; that for `Fc1ccc(Cc2ccc3c(NCCCNCc4cccc5c4OCO5)ccnc3c2)c(Cl)c1` [SJ000311324-1] was 20.6 µM.
The same measure, in the same setting: the value for `COc1ccc(F)cc1CNCCCNc1ccnc2cc(Cc3ccc(F)cc3Cl)ccc12` [SJ000311325-1] was 17.6 µM; that for `O=C1C(Cl)=C(NCCN2CCOCC2)C(=O)c2ncccc21` [SJ000312204-6] was 2.25 µM; that for `Cc1ccc(S(=O)(=O)c2nc(-c3ccccc3C)oc2N2CC(C)OC(C)C2)cc1` (centres unmarked) [SJ000329041-1] was 11.8 µM.
The same measure, in the same setting: next, `Cc1ccc(S(=O)(=O)c2nc(-c3ccccc3Cl)oc2N2CC(C)OC(C)C2)cc1` (centres unmarked) [SJ000329066-1]: 13 µM; `CC1CN(c2oc(-c3ccccc3F)nc2S(=O)(=O)c2ccc(F)cc2)CC(C)O1` (centres unmarked) [SJ000329067-1]: 27.3 µM.
`O=C1OCC(c2ccc(OC(F)F)cc2)=C1c1ccc([N+](=O)[O-])cc1` [SJ000368145-1]: the IC50 came to 40.8 µM.
Regarding `CCCCCn1c(-c2ccc(F)c(Br)c2)nc2c1c(=O)[nH]c(=O)n2CCCC` [SJ000378900-1], the IC50 was determined as 2.64 µM.
On the same count and under the same terms, the value for `C=C(C)CSc1nc2cc(-c3ccccc3)sc2c(=O)n1CCN1CCOCC1` [SJ000456069-1] was 0.861 µM.

The assay is the same for the next values; noted with them: Supplementary Data 3, 59 quinoline compounds; read-out: TR-FRET IC50.
As to `c1coc(CNCCCNc2ccnc3cc(-c4ccc5c(c4)OCO5)ccc23)c1` [SJ000311290-1, C(CNCc1occc1)CNc2ccnc3cc(ccc23)c4ccc5OCOc5c4], the IC50 is more than 70 µM.
For `c1ccc(Cc2ccc3c(NCCCNCc4ccco4)ccnc3c2)cc1` [SJ000311306-2, C(CNCc1occc1)CNc2ccnc3cc(Cc4ccccc4)ccc23], the IC50 stood at 32.2 µM.
On the same count and under the same terms, next, `Clc1cccc(Cl)c1Cc1ccc2c(NCCCNCc3ccco3)ccnc2c1` [SJ000311314-1, Clc1cccc(Cl)c1Cc2ccc3c(NCCCNCc4occc4)ccnc3c2]: 38.4 µM; `Cc1cc(C)cc(Cc2ccc3c(NCCCNCc4ccco4)ccnc3c2)c1` [SJ000311318-2, Cc1cc(C)cc(Cc2ccc3c(NCCCNCc4occc4)ccnc3c2)c1]: more than 70 µM; `Oc1c(F)cc(F)cc1CN(CCCCNc1ccnc2cc(Cl)ccc12)Cc1ccccc1` [SJ000357506-2, Oc1c(F)cc(F)cc1CN(CCCCNc2ccnc3cc(Cl)ccc23)Cc4ccccc4]: more than 70 µM.
The same measure, in the same setting: the value for `CC(C)(C)CCN(CCCCNc1ccnc2cc(Cl)ccc12)Cc1ccccc1` [SJ000357537-2, CC(C)(C)CCN(CCCCNc1ccnc2cc(Cl)ccc12)Cc3ccccc3] was more than 70 µM; that for `FC(F)(F)c1ccc2c(NCCCNCc3ccc[nH]3)ccnc2c1` [SJ000361105-1, FC(F)(F)c1ccc2c(NCCCNCc3ccc[nH]3)ccnc2c1] was 33 µM.
The same measure, in the same setting: the value for `CCCCCCNCCCNc1ccnc2cc(C(F)(F)F)ccc12` [SJ000361124-1] was 57.6 µM; that for `Cc1cc(C)c(CN(CCCNc2ccnc3cc(Cl)ccc23)Cc2ccccc2)c(C)c1` [SJ000361169-2, Cc1cc(C)c(CN(CCCNc2ccnc3cc(Cl)ccc23)Cc4ccccc4)c(C)c1] was more than 70 µM.
On to `Clc1ccc2c(NCCCCN(Cc3ccccc3)CC3CCCCC3)ccnc2c1` [SJ000361194-2, Clc1ccc2c(NCCCCN(CC3CCCCC3)Cc4ccccc4)ccnc2c1], for which the IC50 was more than 70 µM.
Same read-out and setting: the value for `Clc1ccc(CN(CCCCNc2ccnc3cc(Cl)ccc23)Cc2ccccc2)c(Cl)c1` [SJ000361207-2, Clc1ccc(CN(CCCCNc2ccnc3cc(Cl)ccc23)Cc4ccccc4)c(Cl)c1] was more than 70 µM; that for `CCC(C)CN(CCCCNc1ccnc2cc(Cl)ccc12)Cc1ccccc1` (centres unmarked) [SJ000361208-2, CCC(C)CN(CCCCNc1ccnc2cc(Cl)ccc12)Cc3ccccc3] was more than 70 µM.
For `Cc1ccc(C)c(CN(CCCCNc2ccnc3cc(Cl)ccc23)Cc2ccccc2)c1` [SJ000361209-2, Cc1ccc(C)c(CN(CCCCNc2ccnc3cc(Cl)ccc23)Cc4ccccc4)c1], the IC50 is more than 70 µM.
For `CCCN(CCCNc1ccnc2cc(C(F)(F)F)ccc12)Cc1ccc[nH]1` [SJ000361255-1, CCCN(CCCNc1ccnc2cc(ccc12)C(F)(F)F)Cc3ccc[nH]3], the IC50 is more than 70 µM.
As for `CCCN(CCCNc1ccnc2cc(C(F)(F)F)ccc12)CC1CC1` [SJ000361266-1, CCCN(CCCNc1ccnc2cc(ccc12)C(F)(F)F)CC3CC3], the IC50 is more than 70 µM.
For `CCCN(CCCNc1ccnc2cc(C(F)(F)F)ccc12)CC1CCCCC1` [SJ000361268-1, CCCN(CCCNc1ccnc2cc(ccc12)C(F)(F)F)CC3CCCCC3], the IC50 is more than 70 µM.
The same measure, in the same setting: the value for `CCCN(CCCNc1ccnc2cc(C(F)(F)F)ccc12)CC(CC)CC` [SJ000361269-1, CCCN(CCCNc1ccnc2cc(ccc12)C(F)(F)F)CC(CC)CC] was more than 70 µM; that for `CCCCCN(CCC)CCCNc1ccnc2cc(C(F)(F)F)ccc12` [SJ000361271-1, CCCCCN(CCC)CCCNc1ccnc2cc(ccc12)C(F)(F)F] was more than 70 µM; that for `Clc1ccc2c(NCCCN(Cc3ccccc3)Cc3ccc4[nH]ccc4c3)ccnc2c1` [SJ000520430-1, Clc1ccc2c(NCCCN(Cc3ccccc3)Cc4ccc5[nH]ccc5c4)ccnc2c1] was 41.7 µM.
On to `Clc1ccc2c(NCCCN(Cc3ccccc3)Cc3c[nH]c4ccccc34)ccnc2c1` [SJ000520433-1, Clc1ccc2c(NCCCN(Cc3ccccc3)Cc4c[nH]c5ccccc45)ccnc2c1], for which the IC50 was more than 70 µM.
The same measure, in the same setting: the value for `Clc1ccc2c(NCCCCN(Cc3ccccc3)Cc3ccc4[nH]ccc4c3)ccnc2c1` [SJ000520434-1, Clc1ccc2c(NCCCCN(Cc3ccccc3)Cc4ccc5[nH]ccc5c4)ccnc2c1] was 23.4 µM; that for `COc1ccc(C(F)(F)F)cc1CN(CCCCNc1ccnc2cc(Cl)ccc12)Cc1ccccc1` [SJ000520444-1, COc1ccc(cc1CN(CCCCNc2ccnc3cc(Cl)ccc23)Cc4ccccc4)C(F)(F)F] was more than 70 µM; that for `Clc1ccc2c(NCCCCN(Cc3ccccc3)Cc3csc4ccccc34)ccnc2c1` [SJ000520446-1, Clc1ccc2c(NCCCCN(Cc3ccccc3)Cc4csc5ccccc45)ccnc2c1] was more than 70 µM.
Still for that read-out and setting: next, `Cc1ccc(F)cc1CN(CCCCNc1ccnc2cc(Cl)ccc12)Cc1ccccc1` [SJ000520449-1, Cc1ccc(F)cc1CN(CCCCNc2ccnc3cc(Cl)ccc23)Cc4ccccc4]: more than 70 µM; `FC(F)(F)Oc1ccc(CN(CCCCNc2ccnc3cc(Cl)ccc23)Cc2ccccc2)cc1` [SJ000520451-1, FC(F)(F)Oc1ccc(CN(CCCCNc2ccnc3cc(Cl)ccc23)Cc4ccccc4)cc1]: more than 70 µM.
